Experimental data as given in patent publication US5525731A, “Camptothecin analogues and methods of preparation thereof” (priority 1994, dated 1996).
“Also recorded” adds a separate entry of the source. Like-named read-outs stand apart in the source and are kept apart here.

Tests used:
Sarcoma 180 = test system: Sarcoma 180
Method: The control lane (Table A) indicates separate inoculation of nine mice with B-16 melanoma and sarcoma 180.
Anti-tumor activity of the newly synthesized compounds and the established drugs (as positive controls) against solid tumors (B-16 melanoma and sarcoma 180) was tested in BD2 F1 mice. Tumor (about 2.5×10^6 cells) was inoculated subcutaneously (s.c.). Treatment with the drug started on day 4 after inoculation. The drug was injected intraperitoneously (i.p) daily (QD) for five days. Control mice received the same volume (50 μl) of the solvent vehicle (Dinso) as the drug-treated animals. Tumor size was evaluated every few days using a caliper for both the control and the treated group. Average body weight changes were recorded daily. Any lethality due to high dose drug toxicity or due to tumor progression was also recorded.
(§1) Schedule: QD × 5. I.P. started day 4

[1] = Reactivity with thiophenol in dichloromethane
From the text: (For a related example of thiophenol addition to α-methylene-γ-lactones, see: Marshall, J. A., et al., J. Org. Chem., 47, 699 (1982).) NMR analysis of the crude reaction mixture indicated formation of the expected adducts 58 and 59.

topoisomerase-I = assay: Inhibition of topoisomerase-I activity (in words); assay type: biochemical
[2] = Cytotoxicity of compound 33 (in words); assay type: cell-based; settings: relative to camptothecin
B-16 melanoma = assay type: in vivo, BD2 F1 mice
Method: Average body weight changes were recorded daily.
Tumor: B16 Melanoma Drug A = Camptothecin
Inoculation: 2 × 10^6 cells. S.C.
as §1

topoisomerase I and DNA = settings: camptothecin, literature; cited from earlier work
833K cells = assay: Cytotoxicity, XTT assay, 833K cell growth, 72 hr exposure; assay type: cell-based; settings: Homo sapiens, 72 h
Method: (§2) The synthesized compounds were evaluated for their cytotoxic effects on HL-60 (human promyelocytic leukemia) and 833K cells. The assay was conducted in 96-well microplates. The compounds were serially diluted in 4 to 6 steps with dimethylsulfoxide and added to cell incubation medium (RPMI 1640 containing 10% fetal. […]) at the final concentration of 1.0% dimethylsulfoxide in the medium. The cytotoxicity of the compounds were determined by the XTT-microculture tetrazolium assay: 2',3'-bis(2-methoxy-4-nitro-5-sulfophenyl)-3-[(phenylamino)carbonyl]-2H-tetrazolium hydroxide (XTT) was prepared at 1 mg/mL in prewarmed (37° C.) medium without serum. Phenazine methosulfate (PMS) and fresh XTT were mixed together to obtain 0.075 mM PMS-XTT solution (25 mL of the stock with 5 mg PMS added per 5 mL of 1 mg/mL XTT). Fifty microliters of this mixture were added to each well of the cell culture after 72 hours exposure to the testing compound. After incubation at 37° C. for 6 hours, the absorbance was determined at 450 nm and 630 nm with a microplate reader (EL 340, Bio-Tek Instruments, Inc., Winooski, Vt.). THe median-effect inhibitory concentration (IC50) was determined from a medium-effect plot using computer software for the purpose.
(§3) The results of the assay of cytotoxicity towards HL-60 and 833K cells of several analogues of camptothecin prepared in accord with the invention are illustrated in the accompanying Tables I and II, along with comparison data for native camptothecin. The data shown indicate that the camptothecin analogues prepared by the new methods provided by the invention have significant cytotoxic activity against cancer cells. […]

[3] = test system: HL-60 cells (human promyelocytic leukemia); assay: Cytotoxicity, XTT assay, HL-60 cell growth, 72 hr exposure; assay type: cell-based; settings: for IC50: read-out: Inhibitory Concentrations IC50
Method: as §2, §3

[4] = camptothecin, background; cited from earlier work
topoisomerase I = settings: camptothecin, literature; cited from earlier work
[5] = B-16 melanoma, 10 mg/kg i.p. QD × 5, day 7
[6] = B-16 melanoma, 30 mg/kg i.p. QD × 5, day 7
[7] = Sarcoma 180, 4 mg/kg i.p. QD × 5, day 7
[8] = Table I, HL-60 (head HL-6), 72 hr, XTT
[9] = B-16 melanoma, 4 mg/kg i.p. QD × 5, day 7

C=C1C(=O)OCc2c1cc1n(c2=O)Cc2c-1nc1ccc(O)cc1c2CC [Compound 33, 7-Ethyl-10-hydroxy-18-nor-anhydrocamptothecin]
DEATHS (D/L) (Sarcoma 180; Sarcoma 180, 10 mg/kg, day 7): 0/2 | DEATHS (D/L) (Sarcoma 180; Sarcoma 180, 10 mg/kg, day 14): 0/2 | DEATHS (D/L) (Sarcoma 180; Sarcoma 180, 30 mg/kg, day 7, death on day 4 after treatment, listed as 18-nor-20-dehydro-7-ethyl-10-hydroxycamptothecin): one of the two subjects died after day 4 of treatment | DEATHS (D/L) (Sarcoma 180; Sarcoma 180, 30 mg/kg, day 7, death on day 4 after treatment, listed as 20-CH2 -7-Et-10-OH-CPT): One of two mice died on day 4 after treatment | DEATHS (D/L) (Sarcoma 180; Sarcoma 180, 30 mg/kg, day 7, death on day 4 after treatment, listed as B): 1/2 | DEATHS (D/L) (Sarcoma 180; Sarcoma 180, 30 mg/kg, day 14): 0/1 | reaction with thiophenol [1]: consumption of starting material | inhibition of topoisomerase-I activity (topoisomerase-I): potent camptothecin-like inhibition of topoisomerase-I activity; also recorded: still retaining enzyme inhibitory function | cytotoxicity [2]: significantly reduced levels relative to camptothecin | AVERAGE TUMOR VOLUME (B-16 melanoma; B16 melanoma, 10 mg/kg, day 7): 0.163 CM^3 | PERCENT OF CONTROL (tumor volume) (B-16 melanoma; B16 melanoma, 10 mg/kg, day 7): 85.8% | AVERAGE TUMOR VOLUME (B-16 melanoma; B16 melanoma, 10 mg/kg, day 14): 2.320 CM^3 | AWC (average weight change) (B-16 melanoma; B16 melanoma, 10 mg/kg, day 14): +2.7 GM | PERCENT OF CONTROL (tumor volume) (B-16 melanoma; B16 melanoma, 10 mg/kg, day 14): 72.7% | AVERAGE TUMOR VOLUME (B-16 melanoma; B16 melanoma, 30 mg/kg, day 7): 0.036 CM^3 | PERCENT OF CONTROL (tumor volume) (B-16 melanoma; B16 melanoma, 30 mg/kg, day 7): 18.9% | AVERAGE TUMOR VOLUME (B-16 melanoma; B16 melanoma, 30 mg/kg, day 14): 2.925 CM^3 | AWC (average weight change) (B-16 melanoma; B16 melanoma, 30 mg/kg, day 14): +2.7 GM | PERCENT OF CONTROL (tumor volume) (B-16 melanoma; B16 melanoma, 30 mg/kg, day 14): 91.7% | activity compared with authentic camptothecin (B-16 melanoma; B-16 melanoma and sarcoma 180 together): compares favorably with that of authentic camptothecin | decreased body weight (B-16 melanoma; B-16 melanoma, 10 mg/kg): 1.4 gm | tumor volume decrease (B-16 melanoma; B-16 melanoma, 10 mg/kg): 14% | AWC (average weight change) (B-16 melanoma; [5]): -1.4 gm | Ave Tumor Volume (T/C) (B-16 melanoma; [5]): 0.858 | decreased body weight (B-16 melanoma; B-16 melanoma, 30 mg/kg): 1.9 gm | tumor volume decrease (B-16 melanoma; B-16 melanoma, 30 mg/kg): 81% | AWC (average weight change) (B-16 melanoma; [6]): -1.9 gm | Ave Tumor Volume (T/C) (B-16 melanoma; [6]): 0.189

CC[C@@]1(O)C(=O)OCc2c1cc1n(c2=O)Cc2cc3ccccc3nc2-1 [Camptothecin]
AWC (average weight change) (Sarcoma 180; [7]): -0.9 gm | Ave Tumor Volume (T/C) (Sarcoma 180; [7]): 0.634 | AVERAGE TUMOR VOLUME (Sarcoma 180; Sarcoma 180, 4 mg/kg, day 7): 0.104 CM^3 | DEATHS (D/L) (Sarcoma 180; Sarcoma 180, 4 mg/kg, day 7): 0/2 | PERCENT OF CONTROL (tumor volume) (Sarcoma 180; Sarcoma 180, 4 mg/kg, day 7): 63.4% | AVERAGE TUMOR VOLUME (Sarcoma 180; Sarcoma 180, 4 mg/kg, day 14): 0.080 CM^3 | AWC (average weight change) (Sarcoma 180; Sarcoma 180, 4 mg/kg, day 14): +0.8 GM | DEATHS (D/L) (Sarcoma 180; Sarcoma 180, 4 mg/kg, day 14): 0/2 | PERCENT OF CONTROL (tumor volume) (Sarcoma 180; Sarcoma 180, 4 mg/kg, day 14): 39.4% | average weight loss (Sarcoma 180; sarcoma 180, 4 mg/kg): 0.9 gm | tumor volume decrease (Sarcoma 180; sarcoma 180, 4 mg/kg): 36% | binding to the enzyme or DNA target in isolation (topoisomerase I and DNA): binds neither to the enzyme nor to its DNA target in isolation | IC50 (833K cells; read-out: Inhibitory Concentrations IC50): 15.3 nM | IC70 (833K cells; read-out: Inhibitory Concentrations IC70): 43 nM | IC95 (833K cells; read-out: Inhibitory Concentrations IC95): 649 nM | IC70 ([3]; Homo sapiens, HL-60, 72 h, read-out: Inhibitory Concentrations IC70, Table I, HL-60 (head HL-6), 72 hr, XTT): 12 nM | IC70 ([3]; Homo sapiens, HL-60, 72 h, read-out: Inhibitory Concentrations IC70, Table II, HL-60, 72 hr, XTT): 12 nM | IC95 ([3]; Homo sapiens, HL-60, 72 h, read-out: Inhibitory Concentrations IC95, Table I, HL-60 (head HL-6), 72 hr, XTT): 25 nM | IC95 ([3]; Homo sapiens, HL-60, 72 h, read-out: Inhibitory Concentrations IC95, Table II, HL-60, 72 hr, XTT): 25 nM | Inhibitory Concentrations IC70 [3, 8]: 0.006 | Inhibitory Concentrations IC95 [3, 8]: 0.022 | IC70 ([3]; Table II, HL-60, 72 hr, XTT, read-out: Inhibitory Concentrations IC70): 6 nM | IC95 ([3]; Table II, HL-60, 72 hr, XTT, read-out: Inhibitory Concentrations IC95): 22 nM | IC50 [3, 8]: 3.5 nM | IC50 ([3]; Table I, HL-60 (head HL-6), 72 hr, XTT, listed as WS-1): 9.4 nM | IC50 ([3]; Table II, HL-60, 72 hr, XTT): 3.5 nM | IC50 ([3]; Table II, HL-60, 72 hr, XTT, listed as WS-1): 9.4 nM | AVERAGE TUMOR VOLUME (B-16 melanoma; B16 melanoma, 4 mg/kg, day 7): 0.113 CM^3 | DEATHS (D/L) (B-16 melanoma; B16 melanoma, 4 mg/kg, day 7): 0/2 | PERCENT OF CONTROL (tumor volume) (B-16 melanoma; B16 melanoma, 4 mg/kg, day 7): 59.5% | AVERAGE TUMOR VOLUME (B-16 melanoma; B16 melanoma, 4 mg/kg, day 14): 3.500 CM^3 | AWC (average weight change) (B-16 melanoma; B16 melanoma, 4 mg/kg, day 14): +2.4 GM | DEATHS (D/L) (B-16 melanoma; B16 melanoma, 4 mg/kg, day 14): 0/2 | PERCENT OF CONTROL (tumor volume) (B-16 melanoma; B16 melanoma, 4 mg/kg, day 14): 109.8% | average weight loss (B-16 melanoma; B-16 melanoma, 4 mg/kg): 1.8 gm | tumor volume decrease (B-16 melanoma; B-16 melanoma, 4 mg/kg): 40% | AWC (average weight change) (B-16 melanoma; [9]): -1.8 gm | Ave Tumor Volume (T/C) (B-16 melanoma; [9]): 0.595 | toxicity [4]: High toxicity | inhibition of topoisomerase I on DNA unwinding (topoisomerase I): inhibits the action of topoisomerase I on DNA unwinding; also recorded: reversible with heat, high salt concentrations and high dilution
